The source of these data is ChEMBL document CHEMBL6087435, “Prodrugging fungicidal amphotericin B significantly decreases its toxic effects” (Eur J Med Chem, 2025).

Converted amounts (≈) assume the structure as drawn. The source made the active and inactive calls. The rule behind the calls is not given here.

Data set [1] deals with Aspergillus fumigatus. Briefly: Antifungal activity against Aspergillus fumigatus ATCC204305 infected in Galleria mellonella larvae assessed as increase in larval survival at 15 mg/kg measured after 6 days. The following applies: time 6.0 day. The data set is classed as functional, organism-based.
The subject of data set [2] is Candida albicans. The experiment in a line: Antifungal activity against Candida albicans ATCC90028 infected in Galleria mellonella larvae assessed as larval survival at 15 mg/kg measured after 6 days. The data set is classed as functional. As to conditions: time 6 day.
Data set [3] has as its system Aspergillus fumigatus. Briefly: Antifungal activity against Aspergillus fumigatus assessed as inhibition of fungal growth by serial dilution assay. The format is functional.
Data set [4] in a line: Toxicity in Galleria mellonella larvae assessed as effect on survival at 15 mg/kg measured for 144 hrs. The format is organism-based. As to conditions: in vivo.
Data set [5] is described as follows: Toxicity in human HEK293 cells assessed as reduction in cell confluency at 50 uM incubated for 24 hrs by mitotracker red staining based confocal microscopic analysis. As to conditions: hek293, 24 h. Also on record: scale not given: the % may be the effect or the level left.
The nature of data set [6]: Stability in human plasma in PBS at pH 7.4 assessed as half life by HPLC analysis. The data set is classed as ADME, cell-free.
In data set [7] the test system is Candida albicans. The experiment in a line: Antifungal activity against Candida albicans assessed as inhibition of fungal growth by serial dilution assay. The format is functional.
Data set [8] relates to HEK293. Briefly: Cytotoxicity against human HEK293 cells at 6.25 to 100 uM incubated for 24 hrs by Hoechst 33258 staining based flow cytometry. The following applies: hek293, 24 h, dose 6.25-100 µM. The data set is classed as toxicity, cell-based. For orientation: Flow cytometry measures light scatter and fluorescence of single cells or particles in a stream.
The subject of data set [9] is Candida albicans. The experiment in a line: Antifungal activity against Candida albicans ATCC90028 infected in Galleria mellonella larvae assessed as increase in larval survival at 15 mg/kg measured after 6 days. The format is functional, organism-based. As to conditions: time 6.0 day.
The subject of data set [10] is HEK293. The experiment in a line: Cytotoxicity against human HEK293 cells at 12.5 uM incubated for 24 hrs by Hoechst 33258 staining based flow cytometry. The data set is classed as toxicity, cell-based. The following applies: hek293, 24 h.
The nature of data set [11]: Stability in PBS at pH 7.4 assessed as half life by HPLC analysis. The format is physicochemical.
In data set [12] the test system is HEK293. Briefly: Cytotoxicity against human HEK293 cells at 6.25 to 12.5 uM incubated for 24 hrs by Hoechst 33258 staining based flow cytometry. As to conditions: hek293, 24 h, dose 6.25-12.5 µM. The data set is classed as toxicity, cell-based.
Data set [13] can be described thus: Toxicity in human HEK293 cells assessed as effect on cell morphology at 6.25 uM incubated for 24 hrs by confocal microscopic analysis. The data set is classed as cell-based. The following applies: hek293, 24 h.
The nature of data set [14]: Toxicity in human HEK293 cells assessed as effect on adherent cells at 6.25 uM incubated for 24 hrs by confocal microscopic analysis. The data set is classed as cell-based. As to conditions: hek293, 24 h.
Data set [15] can be described thus: Cytotoxicity against human HEK293 cells assessed as cell viability at 100 uM incubated for 24 hrs by Hoechst 33258 staining based flow cytometry. The following applies: read-out: Activity. The data set is classed as toxicity.
Data set [16] in a line: Toxicity in human HEK293 cells assessed as effect on cell physiology at 6.25 uM incubated for 24 hrs by confocal microscopic analysis. The data set is classed as cell-based. As to conditions: hek293, 24 h.
Data set [17] deals with Candida albicans. The experiment in a line: Antifungal activity against Candida albicans K1 assessed as inhibition of fungal growth. The format is functional.
Data set [18] deals with Candida albicans. Briefly: Antifungal activity against Candida albicans SN250 assessed as inhibition of fungal growth by broth dilution assay. The data set is classed as functional. On the technique in general: Dilution methods test growth across graded concentrations, often in twofold steps.
Data set [19] has as its system Candida albicans. The experiment in a line: Antifungal activity against Candida albicans ATCC90028 infected in Galleria mellonella larvae assessed as larval survival at 15 mg/kg measured after 72 hrs. The data set is classed as functional.
Data set [20] can be described thus: Toxicity in human HEK293 cells assessed as reduction in cell viability at 50 uM incubated for 24 hrs by mitotracker red staining based confocal microscopic analysis. The following applies: hek293, 24 h.
Data set [21] deals with Aspergillus fumigatus. The experiment in a line: Antifungal activity against Aspergillus fumigatus ATCC204305 infected in Galleria mellonella larvae assessed as larval survival at 15 mg/kg measured after 6 days. The data set is classed as functional. The following applies: time 6 day.
Data set [22] in a line: Toxicity in human HEK293 cells assessed as effect on polymerized actin pattern at 50 uM incubated for 24 hrs by phalloidin conjugated AlexaFluor-488 staining based confocal microscopic analysis. The format is cell-based. As to conditions: hek293, 24 h.
Data set [23] in a line: Toxicity in human HEK293 cells assessed as effect on cell viability at 50 uM incubated for 24 hrs by confocal microscopic analysis. The data set is classed as cell-based. As to conditions: hek293, 24 h.
Data set [24] in a line: Toxicity in human HEK293 cells assessed as effect on mitochondrial morphology at 50 uM incubated for 24 hrs by mitotracker red staining based confocal microscopic analysis. The format is cell-based. As to conditions: hek293, 24 h.
The nature of data set [25]: Toxicity in human HEK293 cells assessed as effect on polymerized actin signal at 50 uM incubated for 24 hrs by phalloidin conjugated AlexaFluor-488 staining based confocal microscopic analysis. The format is cell-based. The following applies: hek293, 24 h.
Data set [26] is described as follows: Toxicity in Galleria mellonella larvae assessed as larvae death at 15 mg/kg measured for 144 hrs. The data set is classed as organism-based. As to conditions: in vivo.

Usually MIC90 stands for the lowest concentration that inhibits either 90% of growth or 90% of the strains tested, depending on the study. By half-life is commonly meant the time in which the quantity being followed falls by half. As to `CC(C)OC(=O)OCOC(=O)[C@H]1[C@@H]2C[C@@H](O[C@@H]3O[C@H](C)[C@@H](O)[C@H](N)[C@@H]3O)/C=C/C=C/C=C/C=C/C=C/C=C/C=C/[C@H](C)[C@@H](O)[C@@H](C)[C@H](C)OC(=O)C[C@H](O)C[C@H](O)CC[C@@H](O)[C@H](O)C[C@H](O)C[C@](O)(C[C@@H]1O)O2`, the outcome with Aspergillus fumigatus [1] and with Candida albicans [9] was Active. The Activity in the data set on Candida albicans [2] is reported as 10%; in [4] it was “Non-toxic”; in [5], ~ 10%; in the data set with HEK293 [8] it was “Non-toxic”; in the data set on HEK293 [10], “Toxic”; with HEK293 [12] it was “Toxic”. Besides, the results for the MIC90 in the data set with Aspergillus fumigatus [3] and in the data set on Candida albicans [7] were over 16 µg/mL and 2 µg/mL (≈ 1.92 µM), respectively. Further, the half-life in data set [6] is 3.3 h; in data set [11], 7.6 h.

On to `C[C@@H]1[C@H](O)[C@@H](C)/C=C/C=C/C=C/C=C/C=C/C=C/C=C/[C@H](O[C@@H]2O[C@H](C)[C@@H](O)[C@H](N)[C@@H]2O)C[C@@H]2O[C@](O)(C[C@@H](O)C[C@@H](O)[C@H](O)CC[C@@H](O)C[C@@H](O)CC(=O)O[C@H]1C)C[C@H](O)[C@H]2C(=O)O` [AMPHOTERICIN B], for which the Activity entry in data set [13], in [14] and in data set [16] was “Toxic” throughout. Further, the viability at 24 h, 100 µM in data set [15] was 0%.

For orientation: MIC means the lowest concentration found to suppress growth. In the case of `C[C@@H]1[C@H](O)[C@@H](C)/C=C/C=C/C=C/C=C/C=C/C=C/C=C/[C@H](O[C@@H]2O[C@H](C)[C@@H](O)[C@H](N)[C@@H]2O)C[C@@H]2O[C@](O)(C[C@@H](O)C[C@@H](O)[C@H](O)CC[C@@H](O)C[C@@H](O)CC(=O)O[C@H]1C)C[C@H](O)[C@H]2NC(=O)NCCN`, the MIC in the data set on Candida albicans [17] turned out to be 500 µg/mL (≈ 510 µM).

Regarding `C[C@@H]1[C@H](O)[C@@H](C)/C=C/C=C/C=C/C=C/C=C/C=C/C=C/[C@H](O[C@@H]2O[C@H](C)[C@@H](O)[C@H](N)[C@@H]2O)C[C@@H]2O[C@](O)(C[C@@H](O)C[C@@H](O)[C@H](O)CC[C@@H](O)C[C@@H](O)CC(=O)O[C@H]1C)C[C@H](O)[C@H]2NC(=O)C(CO)CO`, the minimal inhibitory concentration (MIC) in the data set on Candida albicans [18] came out at 120 µg/mL (≈ 120 µM).

With `CCOC(=O)[C@H](C)OP(=O)(OCC)Oc1ccc(COC(=O)OCOC(=O)[C@H]2[C@@H]3C[C@@H](O[C@@H]4O[C@H](C)[C@@H](O)[C@H](N)[C@@H]4O)/C=C/C=C/C=C/C=C/C=C/C=C/C=C/[C@H](C)[C@@H](O)[C@@H](C)[C@H](C)OC(=O)C[C@H](O)C[C@H](O)CC[C@@H](O)[C@H](O)C[C@H](O)C[C@](O)(C[C@@H]2O)O3)cc1` (stereo partly drawn), the result with Aspergillus fumigatus [1] and in the data set on Candida albicans [9] was Active. For the same molecule, the Activity with Candida albicans [2] is listed as 40%; in the data set on Candida albicans [19] it was 70%; in [4], “Non-toxic”; with HEK293 [8], “Toxic”; in data set [20], “Toxic”; in the data set on HEK293 [10], “Toxic”. Besides, the Activity result in the data set on HEK293 [12] was “Toxic”. The MIC90 in the data set on Aspergillus fumigatus [3] and in the data set on Candida albicans [7] was 2 µg/mL (≈ 1.52 µM) throughout. The half-life in data set [6] was 2.2 h; in [11], 2.8 h.

As to `CCOC(=O)[C@H](C)OP(=O)(OCC)Oc1ccc(COC(=O)N[C@@H]2[C@H](O)[C@H](O[C@H]3/C=C/C=C/C=C/C=C/C=C/C=C/C=C/[C@H](C)[C@@H](O)[C@@H](C)[C@H](C)OC(=O)C[C@H](O)C[C@H](O)CC[C@@H](O)[C@H](O)C[C@H](O)C[C@]4(O)C[C@H](O)[C@@H](C(=O)O)[C@H](C3)O4)O[C@H](C)[C@H]2O)cc1` (stereo partly drawn), the Activity in the data set on Aspergillus fumigatus [21] is on record as 40%; in the data set with Candida albicans [2], 10%; in data set [22] it was “Non-toxic”; in data set [23] it was “Non-toxic”; in data set [4], “Non-toxic”; in data set [24] it was “Non-toxic”. Moreover, the Activity in data set [5] was ~ 50%; in data set [25] it was “Non-toxic”; in the data set on HEK293 [10], “Toxic”; with HEK293 [12] it was “Toxic”. Moreover, the outcome with Aspergillus fumigatus [1] and in the data set on Candida albicans [9] was Active. In the data set on Aspergillus fumigatus [3], the MIC90 is over 16 µg/mL. Further, the half-life in data set [6] is 4.5 h; in data set [11], 18 h. Also, in data set [15], the viability at 24 h, 100 µM was about 78%.

On to `CCOP(=O)(OCCOC(C)=O)Oc1ccc(COC(=O)N[C@@H]2[C@H](O)[C@H](O[C@H]3/C=C/C=C/C=C/C=C/C=C/C=C/C=C/[C@H](C)[C@@H](O)[C@@H](C)[C@H](C)OC(=O)C[C@H](O)C[C@H](O)CC[C@@H](O)[C@H](O)C[C@H](O)C[C@]4(O)C[C@H](O)[C@@H](C(=O)O)[C@H](C3)O4)O[C@H](C)[C@H]2O)cc1` (stereo partly drawn), for which the outcome in the data set on Aspergillus fumigatus [1] and in the data set on Candida albicans [9] was Active. Further, the Activity in the data set on Candida albicans [2] was 10%; in [22] it was “Non-toxic”; in data set [23], “Non-toxic”; in data set [4], “Non-toxic”; in data set [24] it was “Non-toxic”; in [26], “Toxic”. Moreover, the Activity in data set [5] is ~ 50%; in data set [25], “Non-toxic”; in the data set on HEK293 [10] it was “Toxic”; in the data set with HEK293 [12] it was “Toxic”. Also, the MIC90 in the data set on Aspergillus fumigatus [3] was over 16 µg/mL. The half-life in data set [6] was 1.3 h; in data set [11] it was 35 h. Further, the viability at 24 h, 100 µM in data set [15] is about 86%.
